Columns and labels:
[1] = Cytotoxicity against human NHDF cells assessed as cell viability at 100 uM incubated for 72 hrs by CellTiter-Glo luminescence based assay; settings: read-out: Activity
[2] = Cytotoxicity against human NHDF cells assessed as cell viability at 10 uM incubated for 72 hrs by CellTiter-Glo luminescence based assay; settings: read-out: Activity
HeLa S3 [3] = test: Cytotoxicity against human HeLa S3 cells assessed as cell viability at 10 uM incubated for 72 hrs by CellTiter-Glo luminescence based assay; type: functional; settings: read-out: Activity
[4] = target: T1, Cathepsin K (Homo sapiens) (UniProt P43235); test: Inhibition of recombinant human Cathepsin K expressed in Pichia pastoris X-33 assessed as residual activity at 10 uM using Z-Gly-Pro-Arg-AMC as substrate preincubated for 10 mins followed by substrate addition measured after 30 mins by fluorescence based microplate reader assay; settings: time 40.0 min
T1 sequence (whole entry): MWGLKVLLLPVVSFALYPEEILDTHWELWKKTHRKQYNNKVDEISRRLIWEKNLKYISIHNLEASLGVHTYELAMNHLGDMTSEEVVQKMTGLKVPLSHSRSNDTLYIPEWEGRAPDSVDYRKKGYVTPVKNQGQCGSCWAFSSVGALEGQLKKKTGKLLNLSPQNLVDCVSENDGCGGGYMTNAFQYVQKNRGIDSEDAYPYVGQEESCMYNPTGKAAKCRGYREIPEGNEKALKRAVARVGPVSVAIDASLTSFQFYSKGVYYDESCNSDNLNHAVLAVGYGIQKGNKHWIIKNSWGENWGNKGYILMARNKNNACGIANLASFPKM

SH-SY5Y [5] = test: Cytotoxicity against human SH-SY5Y cells assessed as cell viability at 100 uM incubated for 72 hrs by CellTiter-Glo luminescence based assay; type: functional; settings: read-out: Activity
HepG2 [6] = test: Cytotoxicity against human HepG2 cells assessed as cell viability at 100 uM incubated for 72 hrs by CellTiter-Glo luminescence based assay; type: functional; settings: read-out: Activity
[7] = target: Glycogen synthase kinase-3 beta (Homo sapiens, UniProt P49841); test: Inhibition of human recombinant GSK3beta using GSK3 peptide as substrate preincubated for 15 mins followed by ATP addition and measured after 90 mins by ADP-Glo kinase assay
Chain of Glycogen synthase kinase-3 beta (P49841 whole entry): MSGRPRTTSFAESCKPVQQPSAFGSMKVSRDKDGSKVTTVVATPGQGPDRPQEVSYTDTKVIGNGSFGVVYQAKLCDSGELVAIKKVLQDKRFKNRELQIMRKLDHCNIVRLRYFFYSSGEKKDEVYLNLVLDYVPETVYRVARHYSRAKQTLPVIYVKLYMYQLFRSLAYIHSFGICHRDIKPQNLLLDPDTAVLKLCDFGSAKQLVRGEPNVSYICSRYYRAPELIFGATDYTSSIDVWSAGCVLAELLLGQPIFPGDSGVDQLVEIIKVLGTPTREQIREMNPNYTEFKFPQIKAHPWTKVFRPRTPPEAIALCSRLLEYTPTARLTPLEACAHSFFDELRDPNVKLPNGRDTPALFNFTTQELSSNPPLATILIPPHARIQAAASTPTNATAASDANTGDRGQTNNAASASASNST

CCRF-CEM [8] = test: Cytotoxicity against human CCRF-CEM cells assessed as cell viability at 10 uM incubated for 72 hrs by CellTiter-Glo luminescence based assay; type: functional; settings: read-out: Activity
Cathepsin K = target: T2, Cathepsin K (Homo sapiens, UniProt P43235); test: Inhibition of recombinant human Cathepsin K expressed in Pichia pastoris X-33 using Z-Gly-Pro-Arg-AMC as substrate preincubated for 10 mins followed by substrate addition measured after 30 mins by fluorescence based microplate reader assay
T2 sequence (P43235 whole entry): T1 sequence (whole entry)

HL-60 [9] = test: Cytotoxicity against human HL-60 cells assessed as cell viability at 10 uM incubated for 72 hrs by CellTiter-Glo luminescence based assay; type: functional; settings: read-out: Activity
SH-SY5Y [10] = test: Cytotoxicity against human SH-SY5Y cells assessed as cell viability at 10 uM incubated for 72 hrs by CellTiter-Glo luminescence based assay; type: functional; settings: read-out: Activity
HL-60 [11] = test: Cytotoxicity against human HL-60 cells assessed as cell viability at 100 uM incubated for 72 hrs by CellTiter-Glo luminescence based assay; type: functional; settings: read-out: Activity
HepG2 [12] = test: Cytotoxicity against human HepG2 cells assessed as cell viability at 10 uM incubated for 72 hrs by CellTiter-Glo luminescence based assay; type: functional; settings: read-out: Activity
HeLa S3 [13] = test: Cytotoxicity against human HeLa S3 cells assessed as cell viability at 100 uM incubated for 72 hrs by CellTiter-Glo luminescence based assay; type: functional; settings: read-out: Activity
CCRF-CEM [14] = test: Cytotoxicity against human CCRF-CEM cells assessed as cell viability at 100 uM incubated for 72 hrs by CellTiter-Glo luminescence based assay; type: functional; settings: read-out: Activity

Structure (SMILES) | Activity [4] [%] | IC50 [7] [µM] | IC50 (Cathepsin K) [µM] | viability at 72 h, 100 µM [1] [%] | viability at 72 h, 10 µM [2] [%] | viability at 10 µM (HeLa S3 [3]) [%] | viability at 100 µM (SH-SY5Y [5]) [%] | viability at 100 µM (HepG2 [6]) [%] | viability at 10 µM (CCRF-CEM [8]) [%] | viability at 10 µM (HL-60 [9]) [%] | viability at 10 µM (SH-SY5Y [10]) [%] | viability at 100 µM (HL-60 [11]) [%] | viability at 10 µM (HepG2 [12]) [%] | viability at 100 µM (HeLa S3 [13]) [%] | viability at 100 µM (CCRF-CEM [14]) [%]
CN(C)/C=N/c1nc(=O)n(C[C@H](O)COC(c2ccccc2)(c2ccccc2)c2ccccc2)s1 | 28.3 | > 10 | 10.1 | 1 | 77 | 80 | 3 | 1 | 15 | 64 | 67 | 2 | 87 | 1 | 1
CCOC(=O)Nc1nc(=O)n(CCOCP(=O)(O)O)s1 | 39.1 | > 10 | 10.1 | 97 | 94 | 94 | 105 | 97 | 74 | 96 | 103 | 100 | 98 | 96 | 77
CC(C)OP(=O)(CO[C@H](CO)Cn1sc(NC(=O)OCC2c3ccccc3-c3ccccc32)nc1=O)OC(C)C | 34.1 | > 10 | 9.25 | 100 | 98 | 99 | 85 | 92 | 82 | 103 | 102 | 110 | 102 | 100 | 82
O=C(/N=c1\s[nH]c(=O)n1C[C@H](O)COC(c1ccccc1)(c1ccccc1)c1ccccc1)c1ccccc1 | 34.2 | > 10 | 14.9 | 79 | 98 | 45 | 34 | 37 | 81 | 93 | 96 | 9 | 91 | 3 | 5

Further lines, with some results ahead:

Activity [4] [%] | IC50 [7] [µM] | IC50 (Cathepsin K) [µM] | Structure (SMILES) | viability at 72 h, 100 µM [1] [%] | viability at 72 h, 10 µM [2] [%] | viability at 10 µM (HeLa S3 [3]) [%] | viability at 100 µM (SH-SY5Y [5]) [%] | viability at 100 µM (HepG2 [6]) [%] | viability at 10 µM (CCRF-CEM [8]) [%] | viability at 10 µM (HL-60 [9]) [%] | viability at 10 µM (SH-SY5Y [10]) [%] | viability at 100 µM (HL-60 [11]) [%] | viability at 10 µM (HepG2 [12]) [%] | viability at 100 µM (HeLa S3 [13]) [%] | viability at 100 µM (CCRF-CEM [14]) [%]
5.3 | > 10 | 2.63 | CN(C)/C=N/c1nc(OC[C@H](O)COC(c2ccccc2)(c2ccccc2)c2ccccc2)ns1 | 1 | 97 | 91 | 2 | 1 | 101 | 86 | 99 | 1 | 92 | 2 | 2
16.9 | > 10 | 6.34 | Nc1nc(=O)[nH]s1 | 49 | 101 | 100 | 56 | 54 | 120 | 98 | 99 | 95 | 87 | 87 | 4

Source: ChEMBL document CHEMBL4680348, “1,2,4-Thiadiazole acyclic nucleoside phosphonates as inhibitors of cysteine dependent enzymes cathepsin K and GSK-3β” (Bioorg Med Chem, 2021)
